Some test systems named below: A498; CAKI-1; DU-145; HL-60; HOP-62; HT-29; IGROV-1; K562; M14; MDA-MB-231; NCI-H522; OVCAR-3; OVCAR-8; PC-3; SF-268; SK-MEL-2; SW-620; T47D; UACC-62; HOP-92.
Holding throughout (assay): growth of human tumour cells (NCI), 48 h

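These data come from cells grown in 96-well plates and exposed to compound for 48 hours at five concentrations. At the GI50, growth is halved.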 Activity calls are given as the source filed them. No stated cut-off is given here; in the data, active = GI50 up to about 1.1 µM and inactive = higher.

Turning to `Cc1ccc(S(=O)(=O)NC(=O)NC2=NC(C)(C)N(c3ccc(Cl)c(Cl)c3)C(N)=N2)cc1`, the GI50 is > 100 µM (inactive) in the assay on A498; 49.5 µM (inactive) in the assay on CAKI-1; 64.4 µM (inactive) in the assay with DU-145; 29.5 µM (inactive) in the assay on HL-60; 7.59 µM (inactive) in the assay with HOP-62; 28.7 µM (inactive) in the assay with HT-29. The GI50 with IGROV-1 was 19 µM (inactive); in the assay on K562, 1.94 µM (inactive); in the assay with M14, 17.6 µM (inactive); with MDA-MB-231 it was 7.98 µM (inactive); in the assay with NCI-H522, > 100 µM (inactive); with OVCAR-3, > 100 µM (inactive). The GI50 in the assay on OVCAR-8 is 9.89 µM (inactive); in the assay on PC-3, 0.552 µM (active); with SF-268 it was 20.5 µM (inactive); in the assay with SK-MEL-2 it was > 100 µM (inactive); in the assay with SW-620 it was 4.66 µM (inactive); in the assay on T47D it was 10.4 µM (inactive). Besides, the GI50 in the assay on UACC-62 is 7.59 µM (inactive).

On to `ClCCN1CCOC1=C1C=CC=C1`, for which the GI50 in the assay on A498 was > 100 µM (inactive); in the assay with CAKI-1 it was > 100 µM (inactive); in the assay with DU-145, > 100 µM (inactive); in the assay with HL-60, 96.6 µM (inactive); with HOP-62, 43.9 µM (inactive); in the assay with HOP-92, > 100 µM (inactive). Besides, the GI50 was > 100 µM (inactive) in the assay with HT-29; 14 µM (inactive) in the assay with IGROV-1; > 100 µM (inactive) in the assay with M14; > 100 µM (inactive) in the assay with MDA-MB-231; > 100 µM (inactive) in the assay with OVCAR-3; > 100 µM (inactive) in the assay with OVCAR-8. In addition, the GI50 in the assay with PC-3, in the assay on SF-268, with SW-620 and in the assay on T47D was > 100 µM (inactive) in each case.

Regarding `CCOC(=O)c1ccc(Nc2cnc3cc(C(F)(F)F)ccc3n2)cc1`, the GI50 with A498, in the assay on CAKI-1, in the assay on DU-145, in the assay with HL-60, in the assay with HOP-62 and in the assay on HOP-92 was > 100 µM (inactive) throughout. For the same compound, the GI50 in the assay on HT-29, in the assay with IGROV-1, in the assay with K562, in the assay with MDA-MB-231, in the assay on NCI-H522 and with OVCAR-3 was > 100 µM (inactive) in each case. Further, the GI50 with OVCAR-8, with PC-3, in the assay on SF-268, in the assay with SW-620, in the assay with T47D and in the assay on UACC-62 was > 100 µM (inactive) throughout.

In the case of `Cc1ccc(S(=O)(=O)N(CC(O)COc2ccccc2)c2c(F)c(F)cc(F)c2F)cc1` (configuration not stated), the GI50 with A498 is 20.3 µM (inactive); with CAKI-1, 15.3 µM (inactive); with DU-145, 40.8 µM (inactive); with HL-60, 4.21 µM (inactive); in the assay on HOP-62, 21.3 µM (inactive); in the assay on HOP-92 it was 11.7 µM (inactive). For the same compound, the GI50 is 16.8 µM (inactive) with HT-29; 23.7 µM (inactive) in the assay with M14; 18.3 µM (inactive) with MDA-MB-231; 20.5 µM (inactive) in the assay on OVCAR-3; 22.4 µM (inactive) in the assay with OVCAR-8; 18.3 µM (inactive) in the assay with PC-3. Moreover, the GI50 in the assay on SF-268 is 18.7 µM (inactive); in the assay with SK-MEL-2, 17.2 µM (inactive); in the assay with SW-620, 30.3 µM (inactive); in the assay on T47D, 19.7 µM (inactive); in the assay on UACC-62, 16.6 µM (inactive).

As for `C=C(Cl)C(Cl)(CBr)CCC(Br)C(C)(C)Br` (configuration not stated), the GI50 in the assay on A498 is 10.5 µM (inactive); with CAKI-1, 2.47 µM (inactive); in the assay with DU-145 it was 3.97 µM (inactive); in the assay on HL-60, 2.19 µM (inactive); in the assay on HOP-62, 1.06 µM (active); with HOP-92, 2.76 µM (inactive). The GI50 was 1.07 µM (active) in the assay on HT-29; 18.2 µM (inactive) in the assay with IGROV-1; 4.73 µM (inactive) in the assay on K562; 16.3 µM (inactive) in the assay with M14; 11.9 µM (inactive) in the assay with MDA-MB-231; 5.86 µM (inactive) in the assay with NCI-H522. The GI50 was 2.93 µM (inactive) in the assay with OVCAR-3; 4.3 µM (inactive) in the assay on OVCAR-8; 2.31 µM (inactive) in the assay on PC-3; 3.22 µM (inactive) in the assay with SF-268; 3 µM (inactive) in the assay with SW-620; 2.25 µM (inactive) in the assay on T47D. The GI50 in the assay on UACC-62 is 9.93 µM (inactive).

With `CC(C)NC(=O)OCc1c2c(n(C)c1COC(=O)NC(C)C)-c1cc(Cl)c(Cl)cc1CC2`, the GI50 with A498 is 6.37 µM (inactive); in the assay on DU-145, 70.8 µM (inactive); in the assay with HOP-62, 54.5 µM (inactive); in the assay on HOP-92, 19.5 µM (inactive); in the assay with HT-29, 31 µM (inactive); with IGROV-1, 20.3 µM (inactive). For the same compound, the GI50 was 16.6 µM (inactive) in the assay with K562; 27.9 µM (inactive) with M14; 15.5 µM (inactive) in the assay with MDA-MB-231; 29.1 µM (inactive) in the assay with OVCAR-3; 31 µM (inactive) in the assay on OVCAR-8; 32.9 µM (inactive) in the assay on PC-3. Moreover, the GI50 is 69.2 µM (inactive) in the assay with SF-268; 25.2 µM (inactive) with SK-MEL-2; 45.7 µM (inactive) in the assay on SW-620; 22.6 µM (inactive) in the assay with T47D; 43.9 µM (inactive) with UACC-62.

On to `O=C1N=C(SC2OC(CO)C(O)C(O)C2O)S/C1=C\c1ccccc1` (configuration not stated), for which the GI50 in the assay with A498, in the assay on CAKI-1, in the assay on DU-145, in the assay with HL-60, with HOP-62 and in the assay on HT-29 was > 100 µM (inactive) each time. Further, the GI50 in the assay on IGROV-1, in the assay on K562, in the assay on M14, in the assay on MDA-MB-231, in the assay on NCI-H522 and with OVCAR-3 was > 100 µM (inactive) throughout. Besides, the GI50 with OVCAR-8, in the assay on PC-3, in the assay with SF-268, with SK-MEL-2, in the assay on SW-620 and in the assay on T47D was > 100 µM (inactive) in each case. The GI50 with UACC-62 was > 100 µM (inactive).

With `O=S(=O)(O)c1cc(S(=O)(=O)O)c2c(Nc3ccnc4ccccc34)ccc(S(=O)(=O)O)c2c1`, the GI50 in the assay with A498, in the assay on CAKI-1, with DU-145, in the assay on HL-60, in the assay on HOP-62 and in the assay on HT-29 was > 100 µM (inactive) each time. For the same compound, the GI50 in the assay with IGROV-1, in the assay on M14, with MDA-MB-231, in the assay with NCI-H522, in the assay on OVCAR-3 and with OVCAR-8 was > 100 µM (inactive) in each case. Moreover, the GI50 in the assay on PC-3, with SF-268, in the assay on SK-MEL-2, in the assay on SW-620, in the assay on T47D and with UACC-62 was > 100 µM (inactive) in each case.

For the compound `OCC1OC(c2n[nH]c3c(O)ncnc23)C(O)C1O` (configuration not stated), the GI50 with A498 was 30.1 µM (inactive); in the assay on CAKI-1, 6.81 µM (inactive); with DU-145 it was 1.48 µM (inactive); in the assay on HL-60 it was 3.02 µM (inactive); with HOP-62, 9.79 µM (inactive); in the assay on HT-29 it was 11.9 µM (inactive). Besides, the GI50 in the assay on IGROV-1 is 18.4 µM (inactive); in the assay with K562, 7.48 µM (inactive); with M14, 5.48 µM (inactive); in the assay on MDA-MB-231, 3.66 µM (inactive); with NCI-H522 it was 10.2 µM (inactive); in the assay with OVCAR-3, 9.18 µM (inactive). For the same compound, the GI50 was 4.11 µM (inactive) in the assay on OVCAR-8; 6.68 µM (inactive) with PC-3; 4.17 µM (inactive) with SW-620; 4.72 µM (inactive) with T47D; 31.6 µM (inactive) in the assay on UACC-62.

In the case of `N#Cc1ccc(/C=[N+](/C=c2ccc(=C=[N-])cc2)N(CCO)C2=NCCN2)cc1`, the GI50 in the assay on A498, in the assay with CAKI-1, in the assay on DU-145, in the assay on HL-60, in the assay with HOP-62 and with HT-29 was > 100 µM (inactive) each time. In addition, the GI50 with IGROV-1 was > 100 µM (inactive); in the assay with K562, > 100 µM (inactive); with M14, > 100 µM (inactive); in the assay with MDA-MB-231, > 100 µM (inactive); in the assay with NCI-H522, 71 µM (inactive); in the assay with OVCAR-3, > 100 µM (inactive). For the same compound, the GI50 in the assay with OVCAR-8, in the assay with PC-3, in the assay with SF-268, in the assay with SK-MEL-2, in the assay with SW-620 and in the assay with T47D was > 100 µM (inactive) throughout. For the same compound, in the assay with UACC-62, the GI50 was > 100 µM (inactive).

Regarding `O=C(c1cccs1)N1CCCN(C(=O)c2cccs2)C1=S`, the GI50 in the assay with A498 is > 100 µM (inactive); with CAKI-1, > 100 µM (inactive); in the assay on DU-145, > 100 µM (inactive); in the assay with HL-60, > 100 µM (inactive); in the assay with HOP-62, 26.2 µM (inactive); in the assay with HT-29, > 100 µM (inactive). The GI50 with IGROV-1, in the assay on K562, in the assay on M14, with MDA-MB-231, in the assay with OVCAR-3 and in the assay on OVCAR-8 was > 100 µM (inactive) in each case. Further, the GI50 in the assay on PC-3 is > 100 µM (inactive); in the assay on SF-268, > 100 µM (inactive); in the assay on SK-MEL-2, 84.7 µM (inactive); in the assay with SW-620, > 100 µM (inactive); in the assay with T47D, > 100 µM (inactive); in the assay on UACC-62, > 100 µM (inactive).
